{"source": "the supplement of paper PMC11208160", "data": [{"assay": "recombinant UMI read abundance after kanamycin selection (control-corrected) (log10(CPM+1)); higher = more efficient recombination; extreme values may be limits of the assay; sequences stand for … in AGTGCAGAGAAAATCGGCCAGTTTTCTCTGCCTGCAGTCCGCATGCCGTGGGACCCCTTGGGTTCTAACCTGTTGCCTAGATTTATGCAGCGGACTGCCTTTCTCCCAAAGTGATAAACCGG…AGGTTGGTTTCACT; site = the 11-nt donor", "procedure,_shortened": "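In Escherichia coli, a pool of donor and donor-binding-loop pairs, each with a 12-nt UMI, was tested for the IS621 bridge recombinase. Plating was on IPTG (0.07 mM) plus kanamycin, or without selection, in two replicates. Recombinant UMIs were amplified by PCR across the donor–target junction and sequenced, and counts were reported as log10(CPM+1) after averaging and control-derived scaling.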", "values": [{"sequence": "CGCATATCATGGACCGGTTTTCCCGGTAATCCGTATTTGTC (site CGCATATCTGA)", "recombinant UMI read abundance (log10)": 1.86}, {"sequence": "TAGAATTCATGGACCGGTTTTCCCGGTAATCCGTATTTGCA (site TAGAATTCTTG)", "recombinant UMI read abundance (log10)": 1.53}, {"sequence": "CCGTTTACATGGACCGGTTTTCCCGGTAATCCGTATTTGCC (site CCGTTTACTCG)", "recombinant UMI read abundance (log10)": 0}, {"sequence": "TTCAATTCATGGACCGGTTTTCCCGGTAATCCGTATTTGGG (site TTCAATTCTCC)", "recombinant UMI read abundance (log10)": 0}, {"sequence": "TGGACGGCATGGACCGGTTTTCCCGGTAATCCGTATTTGGC (site TGGCCGGCTGC)", "recombinant UMI read abundance (log10)": 0.327}, {"sequence": "ACGCATCCATGGACCGGTTTTCCCGGTAATCCGTATTTGAC (site ACCCATCCTGT)", "recombinant UMI read abundance (log10)": 0}, {"sequence": "GTAGTGGCATGGACCGGTTTTCCCGGTAATCCGTATTTGCG (site GTAGTGGCTCG)", "recombinant UMI read abundance (log10)": 2.18}, {"sequence": "TAACTTACATGGACCGGTTTTCCCGGTAATCCGTATTTGGC (site TAACTTACTGC)", "recombinant UMI read abundance (log10)": 1.32}, {"sequence": "ATAAGTCCATGGACCGGTTTTCCCGGTAATCCGTATTTGAC (site ATAAGGCCTGT)", "recombinant UMI read abundance (log10)": 0.787}, {"sequence": "TGGTGATCATGGACCGGTTTTCCCGGTAATCCGTATTTGGG (site TGGTGATCTCC)", "recombinant UMI read abundance (log10)": 0.238}, {"sequence": "ATAAGGCCATGGACCGGTTTTCCCGGTAATCCGTATTTGAC (site ATGAGGCCTGT)", "recombinant UMI read abundance (log10)": 0}, {"sequence": "AGGAAGACATGGACCGGTTTTCCCGGTAATCCGTATTTGCA (site AGGAATGCTTG)", "recombinant UMI read abundance (log10)": 0}, {"sequence": "CCCGGTCCATGGACCGGTTTTCCCGGTAATCCGTATTTGTA (site CCCGGTCCTTC)", "recombinant UMI read abundance (log10)": 0.0127}, {"sequence": "ACAGTATCATGGACCGGTTTTCCCGGTAATCCGTATTTGCT (site ACAGTATCTTG)", "recombinant UMI read abundance (log10)": 2.22}, {"sequence": "CTCCGAACATGGACCGGTTTTCCCGGTAATCCGTATTTGCG (site CTCCGAACTCG)", "recombinant UMI read abundance (log10)": 0.829}, {"sequence": "TCCTAGACATGGACCGGTTTTCCCGGTAATCCGTATTTGGG (site GCCTAGACTCC)", "recombinant UMI read abundance (log10)": 0.0199}, {"sequence": "GCAAAAACATGGACCGGTTTTCCCGGTAATCCGTATTTGCT (site GCGAAAACTAG)", "recombinant UMI read abundance (log10)": 0}, {"sequence": "ACTCGAACATGGACCGGTTTTCCCGGTAATCCGTATTTGAG (site ACTTGAACTCT)", "recombinant UMI read abundance (log10)": 0.00429}, {"sequence": "CCTTTCTCATGGACCGGTTTTCCCGGTAATCCGTATTTGGG (site CCGTTCTCTCC)", "recombinant UMI read abundance (log10)": 0.011}, {"sequence": "GCTAGTGCATGGACCGGTTTTCCCGGTAATCCGTATTTGCC (site GCTAATGCTGG)", "recombinant UMI read abundance (log10)": 0}, {"sequence": "TAAAGTCCATGGACCGGTTTTCCCGGTAATCCGTATTTGTG (site TAAAGTCCTGA)", "recombinant UMI read abundance (log10)": 0}, {"sequence": "GGCCACCCATGGACCGGTTTTCCCGGTAATCCGTATTTGTT (site GGCCACCCTCA)", "recombinant UMI read abundance (log10)": 0}, {"sequence": "TGTTGATCATGGACCGGTTTTCCCGGTAATCCGTATTTGAG (site TGTTGATCTCT)", "recombinant UMI read abundance (log10)": 1.22}, {"sequence": "CTACTAACATGGACCGGTTTTCCCGGTAATCCGTATTTGCA (site CTACTAACTTT)", "recombinant UMI read abundance (log10)": 1.47}, {"sequence": "AGGCAGACATGGACCGGTTTTCCCGGTAATCCGTATTTGCA (site AGGCAGACTTG)", "recombinant UMI read abundance (log10)": 2.49}, {"sequence": "GGAGTTGCATGGACCGGTTTTCCCGGTAATCCGTATTTGGT (site GGAGTGGCTAC)", "recombinant UMI read abundance (log10)": 0.00345}, {"sequence": "ACCCACACATGGACCGGTTTTCCCGGTAATCCGTATTTGTA (site ACCCACACTTA)", "recombinant UMI read abundance (log10)": 1.92}, {"sequence": "AGCCGTCCATGGACCGGTTTTCCCGGTAATCCGTATTTGAT (site AACCGTCCTAT)", "recombinant UMI read abundance (log10)": 0.00909}, {"sequence": "CCAGGTGCATGGACCGGTTTTCCCGGTAATCCGTATTTGAT (site CCAAGTGCTAT)", "recombinant UMI read abundance (log10)": 1.24}, {"sequence": "TCTTTGGCATGGACCGGTTTTCCCGGTAATCCGTATTTGTG (site TCTTTGGCTCA)", "recombinant UMI read abundance (log10)": 0.0151}, {"sequence": "GCTATTGCATGGACCGGTTTTCCCGGTAATCCGTATTTGCC (site GCTAGTGCTGG)", "recombinant UMI read abundance (log10)": 0.00747}, {"sequence": "GTAGGTACATGGACCGGTTTTCCCGGTAATCCGTATTTGAT (site GTAGGTACTCT)", "recombinant UMI read abundance (log10)": 0.18}, {"sequence": "TGTTCCCCATGGACCGGTTTTCCCGGTAATCCGTATTTGAA (site TGTTCCCCTTC)", "recombinant UMI read abundance (log10)": 0.011}, {"sequence": "GGTCAAACATGGACCGGTTTTCCCGGTAATCCGTATTTGTA (site GGTCCAACTTA)", "recombinant UMI read abundance (log10)": 0.0193}, {"sequence": "ACGAGAACATGGACCGGTTTTCCCGGTAATCCGTATTTGAG (site ACAAGAACTCT)", "recombinant UMI read abundance (log10)": 2.65}, {"sequence": "ATTGAGTCATGGACCGGTTTTCCCGGTAATCCGTATTTGGT (site ATTGAGCCTAC)", "recombinant UMI read abundance (log10)": 0.00525}, {"sequence": "TTGCCTTCATGGACCGGTTTTCCCGGTAATCCGTATTTGGT (site TGGCCTTCTAC)", "recombinant UMI read abundance (log10)": 0.0098}, {"sequence": "CACTTGGCATGGACCGGTTTTCCCGGTAATCCGTATTTGGA (site CCCTTGGCTTC)", "recombinant UMI read abundance (log10)": 0.304}]}]}
